These results are taken from patent US8481725B2, “Cycloalkylcarbonylamino acid derivative and process for producing the same” (Seikagaku Corporation, priority 2006, dated 2013).

Format in all cases: biochemical
For assay [1], the target named is T1, Cathepsin K (Oryctolagus cuniculus, UniProt P43236).
T1 construct: Active enzyme was produced by expressing cathepsin K in the form of a proenzyme; made in house; host or cells: Sf21 insect cells (baculovirus expression system)
T1 sequence (P43236 115-329): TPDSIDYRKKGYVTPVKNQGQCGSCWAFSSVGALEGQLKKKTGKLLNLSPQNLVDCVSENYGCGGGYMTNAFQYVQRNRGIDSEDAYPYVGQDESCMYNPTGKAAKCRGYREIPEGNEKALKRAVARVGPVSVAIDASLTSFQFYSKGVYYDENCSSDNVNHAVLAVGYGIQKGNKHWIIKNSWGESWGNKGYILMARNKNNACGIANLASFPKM
Put plainly: Measurement of cathepsin K inhibitory activity (fluorescent substrate Z-Gly-Pro-Arg-MCA). Conditions: pH 6.0, 37° C., 30 minutes. The method, then: Active enzyme was produced by expressing cathepsin K in the form of a proenzyme in a cell culture from a baculovirus expression system using Sf21 insect cells, followed by incubating for 1 hour at 40° C.^1). Cathepsin K activity was measured based on decomposition of the fluorescent substrate Z-Gly-Pro-Arg-MCA (Peptide Institute, Inc.) in compliance with the method of Aibe, et al.^2). Namely, the decomposition of […] Z-Gly-Pro-Arg-MCA by cathepsin K was measured in 100 mM sodium/potassium phosphate, 1 mM EDTA and 8 mM cysteine at pH 6.0. The reaction was carried out for 30 minutes at 37° C., and stopped by the addition of 2×10^−5 M Calpeptin. After stopping the reaction, fluorescent intensity was measured at an excitation wavelength of 355 nm and measurement wavelength of 460 nm. Inhibition of cathepsin K by the compounds was examined using the reaction system described above.

In assay [2] the target is T2, Human cathepsin B (Homo sapiens, UniProt P07858).
T2 construct: purchased Calbiochem Corp
Put plainly: Measurement of cathepsin B inhibitory activity (fluorescent substrate Z-Arg-Arg-MCA). Conditions: for IC50: pH 6.0, 30° C., 30 minutes; for B/K (ratio of IC50 cathepsin B to IC50 cathepsin K): selectivity ratio B/K. As to the method:
(§1) Human cathepsin B (Calbiochem Corp.) was used for measurement. Activity was measured based on decomposition of the fluorescent substrate Z-Arg-Arg-MCA (Peptide Institute, Inc.) in compliance with the method of Barrett, et al.^3). Namely, the decomposition of 20 mM Z-Arg-Arg-MCA by cathepsin B was measured in 100 mM sodium/potassium phosphate, 1 mM EDTA, 8 mM cysteine and 0.005% Brij35 at pH 6.0. The reaction was carried out for 30 minutes at 30° C., and stopped by the addition of 2×10^−5 M Calpeptin. After stopping the reaction, fluorescent intensity was measured at an excitation wavelength of 355 nm and measurement wavelength of 460 nm. Inhibition of cathepsin B by the compounds was examined using the reaction system described above.

For assay [3], the target named is T3, Human cathepsin L (Homo sapiens, UniProt P07711).
T3 construct: purchased Calbiochem Corp
T3 sequence (P07711 114-333): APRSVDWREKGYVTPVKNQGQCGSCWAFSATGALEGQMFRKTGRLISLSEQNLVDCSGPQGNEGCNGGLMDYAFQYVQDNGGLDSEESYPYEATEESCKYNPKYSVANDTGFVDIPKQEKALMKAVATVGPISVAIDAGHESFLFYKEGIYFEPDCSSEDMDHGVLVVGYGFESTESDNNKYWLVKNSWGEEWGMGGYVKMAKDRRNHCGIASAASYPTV
Kind of assay: Measurement of cathepsin L inhibitory activity (fluorescent substrate Z-Phe-Arg-MCA). Conditions: for IC50: pH 5.5, 30° C., 30 minutes; for L/K (ratio of IC50 cathepsin L to IC50 cathepsin K): selectivity ratio L/K. As to the method: as §1, with “cathepsin L” for “cathepsin B”, “substrate Z-Phe-Arg-MCA” for “substrate Z-Arg-Arg-MCA”, “[…] Z-Phe-Arg-MCA” for “mM Z-Arg-Arg-MCA”, “mM sodium acetate, 5” for “mM sodium/potassium phosphate, 1”, “EDTA, 4 mM urea,” for “EDTA,”, “pH 5.5.” for “pH 6.0.”

What is called IC50 is the concentration that inhibits the measured activity by half. Lower therefore signals greater potency.

SMILES strings stand for the structures. Starred links: 1 amine or outer side, 2 acyl side, 3 side chain; linkers in the order of their positions; H or OH if unused. Non-standard residues stand in square brackets, D forms with d. Residues, ends and D or L forms follow the SMILES beside them. *: point of attachment. Ac6c = NC1(C(=O)O)CCCCC1; Morpholide = C1CN(*)CCO1; Nle = CCCC[C@H](N)C(=O)O; Cbz = O=C(OCc1ccccc1)*; CO = O=C([*:1])[*:2]

`CCCC[C@@H](C=O)NC(=O)[C@H](CC(C)C)NC(=O)N1CCOCC1` [Reference Example 195, N—[N-(4-Morpholinylcarbonyl)-L-leucyl]-L-norleucinal] displayed an IC50 in assay [1] of 3 nM. In assay [2], 13 nM corresponded to half-maximal inhibition (IC50) and the “B/K (ratio of IC50 cathepsin B to IC50 cathepsin K)” value was 4.3. In addition, in assay [3], the half-maximal inhibitory concentration (IC50) is 22 nM and the “L/K (ratio of IC50 cathepsin L to IC50 cathepsin K)” value is 7.3.

`CC(C)C[C@H](NC(=O)OCc1ccccc1)C(=O)N[C@H](C=O)C(C)C` [Reference Example 193, N—[N-[(Phenylmethoxy)carbonyl]-L-leucyl]-L-valinal] (Cbz-Leu-Val-aldehyde) had a half-maximal inhibitory concentration (IC50) in assay [1] of 1.9 nM. In assay [2], the IC50 turned out to be 110 nM and the “B/K (ratio of IC50 cathepsin B to IC50 cathepsin K)” value was 58. Besides, in assay [3], the IC50 is 140 nM and the “L/K (ratio of IC50 cathepsin L to IC50 cathepsin K)” value turned out to be 74.

The molecule `CCCC[C@@H](C=O)NC(=O)C1(NC(=O)OCc2ccccc2)CCCCC1` [Reference Example 190, N-[[1-[[(Phenylmethoxy)carbonyl]amino]cyclohexyl]carbonyl]-L-norleucinal] (Cbz-[Ac6c]-[Nle]-aldehyde) showed a concentration for half-maximal inhibition (IC50) in assay [1] of 4 nM. For the same molecule, in assay [2], the IC50 was determined as 140 nM and the “B/K (ratio of IC50 cathepsin B to IC50 cathepsin K)” value was 35. Besides, in assay [3], it took 200 nM to reach half-maximal inhibition (IC50) and the “L/K (ratio of IC50 cathepsin L to IC50 cathepsin K)” value amounted to 50.

As to `CC(C)[C@@H](C=O)NC(=O)C1(NC(=O)OCc2ccccc2)CCCCC1` [Reference Example 189, N-[[1-[[(Phenylmethoxy)carbonyl]amino]cyclohexyl]carbonyl]-L-valinal] (Cbz-[Ac6c]-Val-aldehyde), in assay [1], the 50% inhibitory concentration (IC50) came to 1.7 nM. Moreover, in assay [2], the 50% inhibitory concentration (IC50) came to 390 nM and the “B/K (ratio of IC50 cathepsin B to IC50 cathepsin K)” value came to 230. Moreover, in assay [3], the IC50 turned out to be 680 nM and the “L/K (ratio of IC50 cathepsin L to IC50 cathepsin K)” value is 400.

In turn, `CC(C)[C@@H](C=O)NC(=O)C1(NC(=O)c2ccco2)CCCCC1` [Reference Example 191, N-[[1-[(2-Furanylcarbonyl)amino]cyclohexyl]carbonyl]-L-valinal] came in with an IC50 in assay [1] of 0.54 nM. Besides, in assay [2], half-maximal inhibition (IC50) was put at 47 nM and the “B/K (ratio of IC50 cathepsin B to IC50 cathepsin K)” value was 87. Further, in assay [3], the 50% inhibitory concentration (IC50) was determined as 200 nM and the “L/K (ratio of IC50 cathepsin L to IC50 cathepsin K)” value is recorded as 370.

For `CC(C)C[C@H](NC(=O)c1ccco1)C(=O)N[C@H](C=O)C(C)C` [Reference Example 196, N—[N-(2-Furanylcarbonyl)-L-leucyl]-L-valinal], the IC50 in assay [1] is 1.9 nM; in assay [2], 57 nM; in assay [3], 67 nM. In assay [2], the “B/K (ratio of IC50 cathepsin B to IC50 cathepsin K)” value is 30. Also, the “L/K (ratio of IC50 cathepsin L to IC50 cathepsin K)” value in assay [3] is recorded as 35.

In assay [1], `CCCC[C@@H](C=O)NC(=O)[C@H](CC(C)C)NC(=O)OCc1ccccc1` [Reference Example 194, N—[N-[(Phenylmethoxy)carbonyl]-L-leucyl]-L-norleucinal] showed an IC50 of 3.5 nM. Moreover, in assay [2], half-maximal inhibition (IC50) was put at 40 nM and the “B/K (ratio of IC50 cathepsin B to IC50 cathepsin K)” value worked out at 11. In addition, in assay [3], the 50% inhibitory concentration (IC50) is 53 nM and the “L/K (ratio of IC50 cathepsin L to IC50 cathepsin K)” value worked out at 15.

On to `CCCC[C@@H](C=O)NC(=O)C1(NC(=O)N2CCOCC2)CCCCC1` [Reference Example 192, N-[[1-[(4-Morpholinylcarbonyl)amino]cyclohexyl]carbonyl]-L-norleucinal] ({Morpholide-CO}-[Ac6c]-[Nle]-aldehyde), for which, in assay [1], the IC50 came to 22 nM. In assay [2], the IC50 was found to be 260 nM and the “B/K (ratio of IC50 cathepsin B to IC50 cathepsin K)” value was 12. Moreover, in assay [3], the IC50 is 470 nM and the “L/K (ratio of IC50 cathepsin L to IC50 cathepsin K)” value turned out to be 21.
